In patent US4822790A, “1-Sulfo-2-oxoazetidine derivatives and their production” (Takeda Chemical Industries, Ltd., priority 1980, dated 1989):

Assays:
Type in all cases: cell-based
Escherichia coli 0-111 = assay: Antibacterial test (MIC), Escherichia coli 0-111; conditions: Escherichia coli, 0111; medium TSA; read-out: Minimum inhibitory concentration (MIC)
Description: (§1) The following is media and compounds employed in the antibacterial test.
(§2) TSA=Trypticase soy agar [Baltimore Biologicals (U.S.A.)]
(§3) B-TSA=Blood trypticase soy agar

[1] = system: Staphylococcus aureus 308A-1; assay: Antibacterial test (MIC), Staphylococcus aureus 308A-1; conditions: for MIC: Staphylococcus aureus, 308A1, read-out: Minimum inhibitory concentration (MIC)
Description: as §1, §2, §3

Escherichia coli T-7 = assay: Antibacterial test (MIC), Escherichia coli T-7; conditions: medium TSA; for MIC: Escherichia coli, T7, read-out: Minimum inhibitory concentration (MIC)
Description: as §1, §2, §3

[2] = system: Streptococcus mitis America; assay: Antibacterial test (MIC), Streptococcus mitis America; conditions: for MIC: Streptococcus mitis, read-out: Minimum inhibitory concentration (MIC)
Description: as §1, §2, §3

[3] = system: Streptococcus pyogenes E-14; assay: Antibacterial test (MIC), Streptococcus pyogenes E-14; conditions: for MIC: Streptococcus pyogenes, E14, read-out: Minimum inhibitory concentration (MIC)
Description: as §1, §2, §3

[4] = system: Streptococcus pneumoniae Type I; assay: Antibacterial test (MIC), Streptococcus pneumoniae Type I; conditions: for MIC: Streptococcus pneumoniae, read-out: Minimum inhibitory concentration (MIC)
Description: as §1, §2, §3

[5] = system: Bordetella bronchiseptica Sagami; assay: Antibacterial test (MIC), Bordetella bronchiseptica Sagami
Description: as §1, §2, §3

[6] = system: Escherichia coli NIHJ JC-2; assay: Antibacterial test (MIC), Escherichia coli NIHJ JC-2
Description: as §1, §2, §3

Klebsiella pneumoniae DT = assay: Antibacterial test (MIC), Klebsiella pneumoniae DT
Description: as §1, §2, §3

[7] = system: Streptococcus faecium IFO 3128; assay: Antibacterial test (MIC), Streptococcus faecium IFO 3128
Description: as §1, §2, §3

[8] = system: Staphylococcus aureus 1840; assay: Antibacterial test (MIC), Staphylococcus aureus 1840
Description: as §1, §2, §3

[9] = system: Enterobacter cloacae IFO 12937; assay: Antibacterial test (MIC), Enterobacter cloacae IFO 12937
Description: as §1, §2, §3

[10] = system: Corynebacterium diphtheriae Toronto; assay: Antibacterial test (MIC), Corynebacterium diphtheriae Toronto
Description: as §1, §2, §3

[11] = system: Pseudomonas aeruginosa U 31; assay: Antibacterial test (MIC), Pseudomonas aeruginosa U 31
Description: as §1, §2, §3

[12] = system: Proteus morganii IFO 3168; assay: Antibacterial test (MIC), Proteus morganii IFO 3168
Description: as §1, §2, §3

Candida albicans TA = assay: Antibacterial test (MIC), Candida albicans TA
Description: as §1, §2, §3

[13] = system: Proteus mirabilis IFO 3849; assay: Antibacterial test (MIC), Proteus mirabilis IFO 3849
Description: as §1, §2, §3

[14] = system: Staphylococcus aureus FDA209P; assay: Antibacterial test (MIC), Staphylococcus aureus FDA209P
Description: as §1, §2, §3

[15] = system: Citrobacter freundii IFO 12681; assay: Antibacterial test (MIC), Citrobacter freundii IFO 12681
Description: as §1, §2, §3

[16] = system: Streptococcus pyogenes S-8; assay: Antibacterial test (MIC), Streptococcus pyogenes S-8
Description: as §1, §2, §3

[17] = system: Pseudomonas aeruginosa IFO 3455; assay: Antibacterial test (MIC), Pseudomonas aeruginosa IFO 3455; conditions: for MIC: Pseudomonas aeruginosa, IFO3455, read-out: Minimum inhibitory concentration (MIC)
Description: as §1, §2, §3

[18] = system: Proteus vulgaris IFO 3988; assay: Antibacterial test (MIC), Proteus vulgaris IFO 3988
Description: as §1, §2, §3

[19] = system: Serratia marcescens IFO 12648; assay: Antibacterial test (MIC), Serratia marcescens IFO 12648
Description: as §1, §2, §3

[20] = system: Acinetobacter calcoaceticus IFO 13006; assay: Antibacterial test (MIC), Acinetobacter calcoaceticus IFO 13006
Description: as §1, §2, §3

CON=C(C(=O)NC1CN(S(=O)(=O)[O-])C1=O)c1csc(N)n1.[Na+] (centres unmarked) [Compound A, Sodium 3-[2-(2-amino-4-thiazolyl)-2-methoxyiminoacetamido]-2-oxoazetidine-1-sulfonate]
MIC (Escherichia coli 0-111): 0.39 µg/mL
MIC [1]: 25 µg/mL
MIC (Escherichia coli T-7): > 100 µg/mL
MIC [2]: 25 µg/mL
MIC [3]: 3.13 µg/mL
MIC [4]: 12.5 µg/mL
MIC ([5]; Bordetella bronchiseptica, read-out: Minimum inhibitory concentration (MIC)): 100 µg/mL
MIC ([6]; Escherichia coli, NIHJJC2, read-out: Minimum inhibitory concentration (MIC)): 0.78 µg/mL
MIC (Klebsiella pneumoniae DT; Klebsiella pneumoniae, read-out: Minimum inhibitory concentration (MIC)): 0.78 µg/mL
MIC ([7]; Enterococcus faecium, IFO3128, read-out: Minimum inhibitory concentration (MIC)): > 100 µg/mL
MIC ([8]; Staphylococcus aureus, 1840, read-out: Minimum inhibitory concentration (MIC)): 100 µg/mL
MIC ([9]; Enterobacter cloacae, IFO12937, read-out: Minimum inhibitory concentration (MIC)): > 100 µg/mL
MIC ([10]; Corynebacterium diphtheriae, read-out: Minimum inhibitory concentration (MIC)): 1.56 µg/mL
MIC ([11]; Pseudomonas aeruginosa, U31, read-out: Minimum inhibitory concentration (MIC)): > 100 µg/mL
MIC ([12]; Morganella morganii, IFO3168, read-out: Minimum inhibitory concentration (MIC)): 25 µg/mL
MIC (Candida albicans TA; Candida albicans, read-out: Minimum inhibitory concentration (MIC)): > 100 µg/mL
MIC ([13]; Proteus mirabilis, IFO3849, read-out: Minimum inhibitory concentration (MIC)): 6.25 µg/mL
MIC ([14]; Staphylococcus aureus, FDA209P, read-out: Minimum inhibitory concentration (MIC)): 50 µg/mL
Minimum inhibitory concentration (MIC) ([14]; medium B-TSA): 50 µg/mL
MIC ([15]; Citrobacter freundii, IFO12681, read-out: Minimum inhibitory concentration (MIC)): 1.56 µg/mL
MIC ([16]; Streptococcus pyogenes, S8, read-out: Minimum inhibitory concentration (MIC)): 3.13 µg/mL
MIC [17]: 6.25 µg/mL
MIC ([18]; Proteus vulgaris, IFO3988, read-out: Minimum inhibitory concentration (MIC)): 1.56 µg/mL
MIC ([19]; Serratia marcescens, IFO12648, read-out: Minimum inhibitory concentration (MIC)): 12.5 µg/mL
MIC ([20]; Acinetobacter calcoaceticus, IFO13006, read-out: Minimum inhibitory concentration (MIC)): 6.25 µg/mL

CCCCCCCCN1CCN(C(=O)NC(C(=O)NC2CN(S(=O)(=O)O)C2=O)c2csc(N)n2)C(=O)C1=O (centres unmarked) [Compound H, Sodium 3-[2-(4-n-octyl-2,3-dioxo-1-piperazinocarboxamido)-2-(2-amino-4-thiazolyl)-acetamido]2-oxoazetidine-1-sulfonate]
MIC (Escherichia coli 0-111): 3.13 µg/mL
MIC [1]: 3.13 µg/mL
MIC (Escherichia coli T-7): > 100 µg/mL
MIC [3]: 3.13 µg/mL
MIC [4]: 3.13 µg/mL

O=C(NC1CN(S(=O)(=O)O)C1=O)[C@H](NC(=O)N1CCN(N=Cc2ccco2)C1=O)c1ccccc1 (stereo partly drawn) [Compound I, Sodium 3-[D-2-[(2-oxo-3-furfurylideneaminoimidazolidin-1-yl)-carboxamido]-2-phenylacetamido]-2-oxoazetidine-1-sulfonate]
MIC (Escherichia coli 0-111): 3.13 µg/mL
MIC [1]: 3.13 µg/mL
MIC (Escherichia coli T-7): > 100 µg/mL
MIC [2]: 3.13 µg/mL
MIC [17]: 3.13 µg/mL

CCCCCCCCN1CCN(C(=O)NC(C(=O)NC2CN(S(=O)(=O)[O-])C2=O)c2cccs2)C(=O)C1=O.[Na+] (centres unmarked) [Compound J, Sodium 3-[2-(4-n-octyl-2,3-dioxo-1-piperazinocarboxamido)-2-thienylacetamido]-2-oxoazetidine-1-sulfonate]
Minimum inhibitory concentration (MIC) ([1]; medium TSA): 1.56 µg/mL
Minimum inhibitory concentration (MIC) (Escherichia coli T-7): > 100 µg/mL
Minimum inhibitory concentration (MIC) ([2]; medium B-TSA): 25 µg/mL
Minimum inhibitory concentration (MIC) ([3]; medium B-TSA): 1.56 µg/mL
Minimum inhibitory concentration (MIC) ([4]; medium B-TSA): 1.56 µg/mL
Minimum inhibitory concentration (MIC) ([5]; medium B-TSA): > 100 µg/mL
Minimum inhibitory concentration (MIC) ([6]; medium TSA): 3.13 µg/mL
Minimum inhibitory concentration (MIC) (Klebsiella pneumoniae DT; medium TSA): 1.56 µg/mL
Minimum inhibitory concentration (MIC) ([7]; medium B-TSA): > 100 µg/mL
Minimum inhibitory concentration (MIC) ([8]; medium TSA): 6.25 µg/mL
Minimum inhibitory concentration (MIC) ([9]; medium TSA): 6.25 µg/mL
Minimum inhibitory concentration (MIC) ([10]; medium B-TSA): 0.78 µg/mL
Minimum inhibitory concentration (MIC) ([11]; medium TSA): 25 µg/mL
Minimum inhibitory concentration (MIC) ([12]; medium TSA): 1.56 µg/mL
Minimum inhibitory concentration (MIC) (Candida albicans TA; medium TSA): > 100 µg/mL
Minimum inhibitory concentration (MIC) ([13]; medium TSA): 3.13 µg/mL
Minimum inhibitory concentration (MIC) ([14]; medium B-TSA): 3.13 µg/mL
Minimum inhibitory concentration (MIC) ([14]; medium TSA): 1.56 µg/mL
Minimum inhibitory concentration (MIC) ([15]; medium TSA): 3.13 µg/mL
Minimum inhibitory concentration (MIC) ([16]; medium B-TSA): 1.56 µg/mL
Minimum inhibitory concentration (MIC) ([17]; medium TSA): 6.25 µg/mL
Minimum inhibitory concentration (MIC) ([18]; medium TSA): 1.56 µg/mL
Minimum inhibitory concentration (MIC) ([19]; medium TSA): 1.56 µg/mL
Minimum inhibitory concentration (MIC) ([20]; medium TSA): 6.25 µg/mL
